These results are taken from a melting point compilation (Tetko et al.; mined from patent text by program, amines drawn as free bases though some values may be those of a salt).

One may read the melting point as the temperature, or range, at which the solid turns liquid.

The compound `CCc1nn(C2CCCC2)c2cc(C(=O)Nc3cccc4ncccc34)ccc12` had a melting point of 176 to 178 °C.

As to `O=C(CN1CCCC1=O)N1CCC(C2c3ncc(Br)cc3CCc3cc(Cl)cc(Br)c32)CC1` (single isomer, unassigned; (+)), the melting point lay within 118 to 119 °C.

`CC(C)(C)OC(=O)Oc1ccc([N+](=O)[O-])cc1`: the melting point lay in the range of 73 to 74.5 °C.

In turn, `COC(=O)Cc1sc(Sc2cc(C(=O)OC)nc(SC)n2)nc1C` yielded a melting point of 131 to 133 °C.

Consider `CNC(=O)c1cccc(NC(=O)COc2cccc(Cl)c2Cl)c1`, for which the melting point lay within 192 to 193 °C.

`CCS(=O)(=O)Nc1cc(-c2nc[nH]c(=O)c2Cl)c(F)cc1C#N` showed a melting point of 249 to 252 °C.

In turn, `Cc1cc2c(c3ccc(=O)[nH]c13)OC(CCCl)C2` (stereo not given) showed a melting point of 209 to 211 °C.

`NCCCCNc1ncc2ncnc(Nc3ccc(F)c(Cl)c3)c2n1` displayed a melting point of 160 to 162 °C.

`CCOC(=O)c1[nH]c2c(Cl)ccc(Cl)c2c1C` yielded a melting point of 107 to 108 °C.

Regarding `CSc1nc(O)c(C(N)=O)c(O)n1`, the melting point was greater than 360 °C.

In turn, `CCC(=O)N1Cc2cn[nH]c2-c2cc([N+](=O)[O-])ccc21` came in with a melting point of 219 to 221 °C.

`CCOC(=O)CN1Cc2ccccc2CC(N)C1=O` (stereo not given) came in with a melting point of 71 to 73 °C.

In turn, `Brc1ccc(C2(c3ccccc3)OCCO2)cc1` showed a melting point of 54 to 56 °C.

Compound `Fc1cc(F)cc(Cn2cnnc2S)c1` yielded a melting point of 129 to 130 °C.

In turn, `CC(C)CC(=O)Nc1nc(-c2ccccc2)c(-c2ccc(=O)n(C(C)C)n2)s1` gave a melting point of 198 to 199 °C.

Regarding `CCN1CC(=O)c2ccc3ccccc3c2S1(=O)=O`, the melting point was in the range of 146 to 147 °C.

In turn, `C#CCOCC(CC)(OC)c1cccc(OCc2ccc3ccccc3c2)c1` (stereo not given) gave a melting point of 54 °C.

Take `N#Cc1ccc2c(c1)C(=O)c1ccccc1OC2`: the melting point was 116 to 127 °C.

Consider `CCOC(=O)C1=C(N)NC(N)=C(C(=O)OC(C)C)C1c1ccccc1` (stereo not given), for which the melting point turned out to be 170 °C.

For `CC1(C)Oc2ccc(-c3c(NCCO)c(=O)c3=O)cc2[C@@H](N2Cc3ccccc3C2=O)[C@@H]1O` (relative stereo), the melting point was in the range of 205 to 215 °C.

Regarding `Nc1ccccc1C(=O)Nc1cccnc1Cl`, the melting point lay in the range of 172 to 175 °C.

Compound `COc1ccc(Oc2c(C)cc(N)cc2C)cc1C(C)C` registered a melting point of 95 to 100 °C.

On to `CN1CCN(C(=O)c2ccc(-c3cnc4c(c3)N(Cc3cc(F)ccc3F)CC(C)(C)N4)cc2)CC1`, for which the melting point was in the range of 191 to 192 °C.

In turn, `CN(C(=O)N1CCN(C[C@@]2(C)Cn3cc([N+](=O)[O-])nc3O2)CC1)c1ccc(C(F)(F)F)cc1` showed a melting point of 100 to 102 °C.

`O=c1cnc2c(NCCO)nc(SCc3cccc(C(F)(F)F)c3F)nc2[nH]1` returned a melting point of 221 to 222 °C.

For `N#Cc1ccc(-c2ccc(OC3SCC(O)C(O)C3O)cn2)cn1` (stereo not given), the melting point came out at 167 °C.

`Cc1nc(-c2cccnc2)c2nc(-c3ccccc3)cc-2[nH]1` yielded a melting point of 252 to 254 °C.

Take `Clc1ccc(CN2CCOCC2)c(N=C2CCCCN2)c1`: the melting point lay within 121 to 122 °C.

Take `CCC(C)Nc1nc2ncnn2c2c1cnc1c2cnn1CC` (stereo not given): the melting point is 228 to 230 °C.

In turn, `CC(C)(C)C(NC(=O)c1ccc(I)cc1)Nc1c(Nc2cccnc2)c(=O)c1=O` (stereo not given) gave a melting point of 256 to 257 °C.

Consider `CC(C)(CCCCCCCCCCOCc1ccccc1)C(=O)O`, for which the melting point is 53 to 55 °C.

In turn, `Cc1ccc(C2c3c(C)c(-n4cc5cc6c(cc5c4)OCO6)c(C)c(C)c3OC2(C)C)cc1` (stereo not given) gave a melting point of 236 to 242 °C.

Take `CCCCNc1cc(C(=O)O)cc(S(=O)(=O)NCCCC)c1Oc1ccccc1`: the melting point is 184 to 185 °C.

`Cc1ccc(Cl)c(N)c1C(N)=O` had a melting point of 124 to 128 °C.

The compound `O=C(NC(=NCCSCc1cccs1)NCCCc1c[nH]cn1)c1ccccc1` yielded a melting point of 128 to 129 °C.

For `CCCCCCCCCCCCCCCCCCNC(=O)NCCCCCCCCN`, the melting point was in the range of 120 to 145 °C.

With `Cc1cc(-c2noc(C3CC3)n2)cc(C)c1OCCCc1cc(CO)no1`, the melting point was 80 to 81 °C.

For `N#Cc1c(C(F)(F)F)ccc(Cl)c1F`, the melting point was 43 to 44 °C.

`CC(C)[C@H](NC(=O)CCC(=O)Nc1ccccc1)C(N)=O` displayed a melting point of 218 to 220 °C.

As to `CC(C)(C)C(c1csc2ccccc12)[C@@H](OC(N)=O)c1nc(-c2ccccc2)c[nH]1` (stereo not given in full), the melting point fell in the range of 116 to 120 °C.

Compound `CN(C)C(=O)Nc1ccc(Oc2cccc(C(F)(F)F)c2)c(Cl)c1` showed a melting point of 166 °C.

With `COc1cc(C#N)c2c(c1OC)C(=O)CC2`, the melting point came to 150 °C.

The compound `Cc1ccc(NC(=O)N2CCN(CCc3ccc(-c4cccc(N)n4)cc3)CC2)cc1C` returned a melting point of 122 to 125 °C.

On to `COC(=O)CCCC#Cc1cc(Cl)ccc1NS(=O)(=O)c1cccc2ccccc12`, for which the melting point was in the range of 93 to 95 °C.

Regarding `COC(=O)C[C@H](O)C[C@H](O)CCc1c(-c2ccc(F)cc2)c(-c2ccccc2)c(C(=O)Nc2ccccc2)n1C(C)C`, the melting point lay in the range of 154 to 157 °C.

On to `Nc1ccncc1Nc1ccc2[nH]ccc2c1`, for which the melting point lay within 83 to 90 °C.

`CCCCCCC(C)(C)c1cc(OC)c(C2=C[C@@H]3CC[C@@]2(C(=O)O)C3(C)C)c(OC)c1` displayed a melting point of 101 to 102 °C.

Turning to `NC(=O)c1ccc(NC(=O)C(CS)Cc2ccccc2)cc1` (stereo not given), the melting point was 195 to 197 °C.

For the compound `O=C(Nc1ccc(-n2cccn2)c(F)c1)OCc1ccccc1`, the melting point was 82 to 83 °C.

The compound `COc1ccc(C=O)c(Cl)c1OCc1ccccc1` had a melting point of 86 to 88 °C.

The compound `NC(=O)CCn1c(=S)sc2ccccc21` returned a melting point of 226 to 227 °C.

As to `CC(=O)C(=O)C(=O)OC(C)(C)C`, the melting point lay within 62 to 66 °C.

Take `CCCc1nc2ccccn2c(=O)c1-c1ccc(Cl)cc1`: the melting point is 109 to 110 °C.

`CN(C)C=Cc1ccc(-c2csc(-c3ccc(F)cc3)n2)cc1[N+](=O)[O-]`: the melting point fell in the range of 137 to 138 °C.

Regarding `Cc1ccc(C(=O)c2c(Cl)cccc2Cl)cc1`, the melting point is 109 to 112 °C.

In the case of `Cc1ccc(S(=O)(=O)ON=C2CC(c3ccccc3)c3ccccc32)cc1` (stereo not given), the melting point was 123 to 127 °C.

For `Cn1c(C#N)ccc1-c1ccc2c(c1)C(C)(C)OC(=S)N2`, the melting point fell in the range of 228 to 229 °C.

As to `N#CCN[C@H]1CCc2c(F)cc(F)cc2C1`, the melting point lay in the range of 73 to 76 °C.

`CCc1cc(=O)c(C(=O)OC)c(C)[nH]1` showed a melting point of 176 to 180 °C.

As for `CN1C(=O)C2(COc3cc4c(cc32)OCCO4)c2c(C(=O)NC3CCCCC3)cccc21` (stereo not given), the melting point was in the range of 139 to 140 °C.

`O=C1CCC(N2Cc3cc(CNC(=O)Nc4cc(C(F)(F)F)ccc4Cl)ccc3C2=O)C(=O)N1` (stereo not given) gave a melting point of 240 to 242 °C.

With `O=C(c1ncc[nH]1)c1cc(F)c(F)cc1Cl`, the melting point is 80 to 81 °C.

Turning to `COc1cc(OC)nc(C(C(=O)NS(C)(=O)=O)C(C)C)n1` (stereo not given), the melting point is 99 to 102 °C.

The compound `Cc1nnc(-c2cn3c4c(cccc24)CCC3)o1` returned a melting point of 70 to 72 °C.

Regarding `C[Si](C)(C)c1cccc2c1S(=O)c1c(cccc1[Si](C)(C)C)S2`, the melting point was 210 to 211 °C.

In the case of `CC(=O)Oc1c(C(C)C)cc(C(=O)Nc2cnc3c(C)cc(C)cc3c2-c2ccccc2Cl)cc1C(C)C`, the melting point was in the range of 195 to 196 °C.

Turning to `CCOC(=O)Cc1c(-c2ccccc2)n[nH]c1-c1ccccc1`, the melting point lay within 117 to 118 °C.

The compound `CCCCCCCCCCN1CCN(O)C1=O` gave a melting point of 68 to 69 °C.

Compound `Cc1cc(Sc2ccccc2)ccc1N` returned a melting point of 64 to 65 °C.

Take `Cc1nccn1-c1ccc(O)cc1`: the melting point was in the range of 205 to 208 °C.

The compound `CNS(=O)(=O)c1cccc(-c2cc(-c3nc(-c4ccc(C(F)(F)F)cc4)cc(C(F)(F)F)n3)ccn2)c1` showed a melting point of 174 °C.

On to `CCOC(=S)c1cc(Cl)c(C)c(-c2cc(C)no2)c1C`, for which the melting point was 79 to 82 °C.

Consider `CC1=NC(C)(COc2ccc(NC(=O)c3cc(F)cc(N4CCOCC4)c3)c3ccccc23)CO1` (stereo not given), for which the melting point was in the range of 203 to 206 °C.

`O=C(O)C(=O)c1ccc(OCCOc2ccc(C(F)(F)F)cc2)cc1` had a melting point of 121 to 123 °C.

Compound `O=C1C=C(c2c[nH]c3ccc(Cl)cc23)C(=O)N1` yielded a melting point of 254 to 264 °C.

Compound `CC(O)Cn1cnc2c(=O)[nH]cnc21` (stereo not given) registered a melting point of 244 to 250 °C.

`COc1cc2c(cc1-c1ncco1)-c1c(-c3cccs3)c3c(n1CC2)C(=O)N(C(C)(C)C)CCC3` gave a melting point of 230 to 231 °C.

`Nc1ncnc2c1c(-c1cccc(O)c1)nn2Cc1oc2ccccc2c(=O)c1-c1ccccc1` displayed a melting point of 154 to 158 °C.

Regarding `COP(=O)(CCc1cccc2c1O[C@H]1C[C@@H](O)[C@H](CO)[C@@H]21)OC`, the melting point fell in the range of 106 to 107 °C.

Turning to `COc1ccc(C(OCC2OC(n3cnc4c(N)nc(F)nc43)CC2O)(c2ccccc2)c2ccc(OC)cc2)cc1` (stereo not given), the melting point is 239 to 243 °C.

In turn, `O=[N+]([O-])c1c(Br)nc2ccc(Cl)cc2c1C(F)(F)F` registered a melting point of 120 °C.

For the compound `COc1ccc(-n2c(=O)n(OCc3ccccc3)c(=O)c3cc(F)c(Cl)nc32)cc1`, the melting point was in the range of 238 to 240 °C.

`OCc1c(CO)c(-c2ccc(F)c(F)c2)n2c1Cc1ccccc1C2`: the melting point fell in the range of 145 to 146 °C.

For the compound `O=C(O)CCOc1ccccc1-c1nc(-c2ccccc2)no1`, the melting point was in the range of 170 to 171 °C.

As for `CC(C)=CC(=S)Nc1ccccc1`, the melting point was 175 °C.

Consider `CSc1c(S(N)(=O)=O)ccn1C`, for which the melting point was in the range of 135 to 137 °C.

In turn, `CCOP(=O)(/C=C/c1cn(-c2ccccc2)nc1OCc1ccc(OCc2nc(-c3ccccc3)sc2C)c(OC)c1)OCC` gave a melting point of 110 to 111 °C.

`Nc1ccccc1SSc1ccccc1N` came in with a melting point of 88 to 89 °C.

Compound `O=C1NC(N2CCCCCC2)=N/C1=C\c1c[nH]c2ncc(-c3ccccc3)cc12` gave a melting point of 302 °C.

On to `CCc1cc(C#N)cc2c(NCc3ccc(OC)c(Cl)c3)c(C(=O)Oc3c(F)c(F)c(F)c(F)c3F)cnc12`, for which the melting point was 169 to 170 °C.
